Measured values: patent US20100144755A1 (Glaxo Group Limited, priority 2006, published 2010)
Structures can show the parent of a compound that is named as a salt.

Test system: influx of neutrophils to the lung in LPS-challenged rats
Test: Rat LPS neutrophilia model
Assay type: in vivo
Settings: LPS aerosol, intratracheal dosing, in at least one of the range of conditions tested, significance p<0.05
Method: Rat LPS Neutrophilia Model
The effect of compounds on the influx of neutrophils to the lung in LPS-challenged rats is evaluated as follows. The test compound is suspended in one of the following solutions: 0.5% tween 80/PBS, 0.5% tween 80/saline, 10% EtOH/saline (with pH adjusted to 2.0, or 8.0 with HCl, or unadjusted), Saline @pH 2.0, 6.5 or 8.0, 0.5% Tragacanth, 1% DMSO/20% Encapsin/Saline, or acidified 5% Tragacanth. The suspension process may be aided by the use of a glass homogenizer. For intratracheal administration, the animals are anesthetized with inhaled isoflurane and placed in a supine position, the trachea is intubated with a steel gavage needle (1.5 inch, 22 gauge, small ball) or a Penn-Century Microsprayer Aerosolizer (model IA-1B) and 200 ul of dosing solution is delivered. The animals are visually monitored during the recovery process, which typically occurs within two minutes. It is noted that the test compounds may be alternatively administered via the microsprayer in a dry powder blend with a suitable excipient, such as lactose.
Rats treated with compound or vehicle (15 min-24 hours pretreatment) are exposed to an LPS aerosol (100 ug/ml) for 15 min. Four hours later the rats are euthanized with pentobarbital (100 mg/kg, i.p.) and the airways are lavaged with 5 washes of 5 ml of phosphate buffered saline. The harvested cells are stained (Diffquick) and counted to determine total and differential cell data. […] Inhibition of neutrophil levels relative to no compound controls is calculated based on the differential counts.
The data is obtained as % inhibition using a particular concentration and pretreat time.

Structure (SMILES)	inhibition of neutrophilia
CCCNC(=O)c1ccc(C)c(-c2nc(N3CCC(N4CCC(C)CC4)CC3)nc3c2ccc(=O)n3-c2c(F)cccc2F)c1 [Example 166, 3-[8-(2,6-difluorophenyl)-2-(4-methyl-1,4′-bipiperidin-1′-yl)-7-oxo-7,8-dihydropyrido[2,3-d]pyrimidin-4-yl]-4-methyl-N-propylbenzamide]	statistically significant inhibition
Cc1ccc(C(=O)NC2CC2)cc1-c1nc(N2CCC(N3CCC(C)CC3)CC2)nc2c1ccc(=O)n2-c1c(F)cccc1F [Example 178, N-cyclopropyl-3-[8-(2,6-difluorophenyl)-2-(4-methyl-1,4′-bipiperidin-1′-yl)-7-oxo-7,8-dihydropyrido[2,3-d]pyrimidin-4-yl]-4-methylbenzamide]	statistically nonsignificant inhibition
Cc1ccc(C(=O)Nc2nccs2)cc1-c1nc(NC2CC(C)(C)NC(C)(C)C2)nc2c1ccc(=O)n2-c1c(F)cccc1F [Example 67, 3-{8-(2,6-difluorophenyl)-7-oxo-2-[(2,2,6,6-tetramethyl-4-piperidinyl)amino]-7,8-dihydropyrido[2,3-d]pyrimidin-4-yl}-4-methyl-N-1,3-thiazol-2-ylbenzamide]	statistically nonsignificant inhibition
CCN(CC)CCCNc1nc(-c2cc(C(=O)NCCF)ccc2C)c2ccc(=O)n(-c3c(F)cccc3F)c2n1 [Example 133, 3-[2-{[3-(diethylamino)propyl]amino}-8-(2,6-difluorophenyl)-7-oxo-7,8-dihydropyrido[2,3-d]pyrimidin-4-yl]-N-(2-fluoroethyl)-4-methylbenzamidetrifluoroacetate]	statistically significant inhibition
Cc1ccc(C(=O)NC2CCCC2)cc1-c1nc(NCc2ncc[nH]2)nc2c1ccc(=O)n2-c1c(F)cccc1F [Example 76, N-cyclopentyl-3-{8-(2,6-difluorophenyl)-2-[(1H-imidazol-2-ylmethyl)amino]-7-oxo-7,8-dihydropyrido[2,3-d]pyrimidin-4-yl}-4-methylbenzamide]	statistically nonsignificant inhibition
Cc1ccc(C(=O)Nc2ccc(F)cc2)cc1-c1nc(NCc2ncc[nH]2)nc2c1ccc(=O)n2-c1c(F)cccc1F [Example 78, 3-{8-(2,6-difluorophenyl)-2-[(1H-imidazol-2-ylmethyl)amino]-7-oxo-7,8-dihydropyrido[2,3-d]pyrimidin-4-yl}-N-(4-fluorophenyl)-4-methylbenzamide]	statistically significant inhibition
Cc1ccc(C(=O)Nc2nccs2)cc1-c1nc(NCCN(C)C)nc2c1ccc(=O)n2-c1c(F)cccc1F [Example 109, 3-(8-(2,6-difluorophenyl)-2-{[2-(dimethylamino)ethyl]amino}-7-oxo-7,8-dihydropyrido[2,3-d]pyrimidin-4-yl)-4-methyl-N-1,3-thiazol-2-ylbenzamide]	statistically significant inhibition
Cc1ccc(C(=O)NC(C)C)cc1-c1nc(NCCN(C)C)nc2c1ccc(=O)n2-c1c(F)cccc1F [Example 117, 3-(8-(2,6-difluorophenyl)-2-{[2-(dimethylamino)ethyl]amino}-7-oxo-7,8-dihydropyrido[2,3-d]pyrimidin-4-yl)-4-methyl-N-(1-methylethyl)benzamide]	statistically significant inhibition
Cc1ccc(C(=O)NC2CC2)cc1-c1nc(NCc2ncc[nH]2)nc2c1ccc(=O)n2-c1c(F)cccc1F [Example 23, N-cyclopropyl-3-{8-(2,6-difluorophenyl)-2-[(1H-imidazol-2-ylmethyl)amino]-7-oxo-7,8-dihydropyrido[2,3-d]pyrimidin-4-yl}-4-methylbenzamide]	statistically nonsignificant inhibition
CCCNC(=O)c1ccc(C)c(-c2nc(N3CCC(N)CC3)nc3c2ccc(=O)n3-c2c(F)cccc2F)c1 [Example 69, 3-[2-(4-amino-1-piperidinyl)-8-(2,6-difluorophenyl)-7-oxo-7,8-dihydropyrido[2,3-d]pyrimidin-4-yl]-4-methyl-N-propylbenzamide]	statistically significant inhibition
CNCCNc1nc(-c2cc(C(=O)NCCc3ccccc3)ccc2C)c2ccc(=O)n(-c3c(F)cccc3F)c2n1 [Example 29, 3-(8-(2,6-difluorophenyl)-2-{[2-(methylamino)ethyl]amino}-7-oxo-7,8-dihydropyrido[2,3-d]pyrimidin-4-yl)-4-methyl-N-(2-phenylethyl)benzamide]	statistically significant inhibition
Cc1ccc(C(=O)Nc2ccc(F)cc2)cc1-c1nc(NCCN(C)C)nc2c1ccc(=O)n2-c1c(F)cccc1F [Example 112, 3-(8-(2,6-difluorophenyl)-2-{[2-(dimethylamino)ethyl]amino}-7-oxo-7,8-dihydropyrido[2,3-d]pyrimidin-4-yl)-N-(4-fluorophenyl)-4-methylbenzamide]	statistically nonsignificant inhibition
CCN(CC)CCCNc1nc(-c2cc(C(=O)NCC3CCCC3)ccc2C)c2ccc(=O)n(-c3c(F)cccc3F)c2n1 [Example 132, N-(cyclopentylmethyl)-3-[2-{[3-(diethylamino)propyl]amino}-8-(2,6-difluorophenyl)-7-oxo-7,8-dihydropyrido[2,3-d]pyrimidin-4-yl]-4-methylbenzamidetrifluoroacetate]	statistically nonsignificant inhibition
CCN(CC)CCCNc1nc(-c2cc(C(=O)NCC3CC3)ccc2C)c2ccc(=O)n(-c3c(F)cccc3F)c2n1 [Example 138, N-(cyclopropylmethyl)-3-[2-{[3-(diethylamino)propyl]amino}-8-(2,6-difluorophenyl)-7-oxo-7,8-dihydropyrido[2,3-d]pyrimidin-4-yl]-4-methylbenzamide trifluoroacetate]	statistically nonsignificant inhibition
CCN(CC)CCCNc1nc(-c2cc(C(=O)NCCOC)ccc2C)c2ccc(=O)n(-c3c(F)cccc3F)c2n1 [Example 134, 3-[2-{[3-(diethylamino)propyl]amino}-8-(2,6-difluorophenyl)-7-oxo-7,8-dihydropyrido[2,3-d]pyrimidin-4-yl]-4-methyl-N-[2-(methyloxy)ethyl]benzamidetrifluoroacetate]	statistically nonsignificant inhibition
CCN(CC)CCCNc1nc(-c2cc(C(=O)N[C@@H](C)c3ccccc3)ccc2C)c2ccc(=O)n(-c3c(F)cccc3F)c2n1 [Example 149, 3-[2-{[3-(diethylamino)propyl]amino}-8-(2,6-difluorophenyl)-7-oxo-7,8-dihydropyrido[2,3-d]pyrimidin-4-yl]-4-methyl-N-[(1S)-1-phenylethyl]benzamide]	inactive
Cc1ccc(C(=O)Nc2nccs2)cc1-c1nc(NCCCNC(C)C)nc2c1ccc(=O)n2-c1c(F)cccc1F [Example 101, 3-[8-(2,6-difluorophenyl)-2-({3-[(1-methylethyl)amino]propyl}amino)-7-oxo-7,8-dihydropyrido[2,3-d]pyrimidin-4-yl]-4-methyl-N-1,3-thiazol-2-ylbenzamide]	statistically significant inhibition
Cc1ccc(C(=O)NCc2ccccc2)cc1-c1nc(N2CCC(N)CC2)nc2c1ccc(=O)n2-c1c(F)cccc1F [Example 71, 3-[2-(4-amino-1-piperidinyl)-8-(2,6-difluorophenyl)-7-oxo-7,8-dihydropyrido[2,3-d]pyrimidin-4-yl]-4-methyl-N-(phenylmethyl)benzamide]	statistically nonsignificant inhibition
